The values below come from patent US10449168B2 (The University of Toledo, priority 2015, dated 2019).

Format in all cases: biochemical
Assay [1] deals with T1, Streptococcus pneumoniae aspartate semialdehyde dehydrogenase (spASADH) (Streptococcus pneumoniae, UniProt Q8DQ00).
T1 construct: homodimer from general knowledge
T1 sequence (Q8DQ00 1-358): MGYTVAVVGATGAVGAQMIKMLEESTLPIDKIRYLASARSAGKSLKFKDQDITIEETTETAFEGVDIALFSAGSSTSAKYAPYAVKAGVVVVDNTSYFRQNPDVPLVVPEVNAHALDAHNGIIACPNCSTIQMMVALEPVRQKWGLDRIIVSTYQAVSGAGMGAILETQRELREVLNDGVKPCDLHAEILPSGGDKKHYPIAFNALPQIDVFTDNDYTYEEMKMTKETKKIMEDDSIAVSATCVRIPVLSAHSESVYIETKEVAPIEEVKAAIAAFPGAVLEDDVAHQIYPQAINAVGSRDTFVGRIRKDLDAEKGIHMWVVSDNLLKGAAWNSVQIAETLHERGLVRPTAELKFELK
The experiment in a line: spASADH kinetic assay: reverse direction, NADPH absorbance at 340 nm; Ki from Dixon plot assuming competitive inhibition against ASA. The conditions noted are these: pH 8.6, r.t., 0.15 mM ASA, 1.5 mM NADP, 20 mM phosphate.

Assay [2] deals with Vibrio cholerae aspartate semialdehyde dehydrogenase (vcASADH). The experiment in a line: vcASADH kinetic assay: reverse direction, NADPH absorbance at 340 nm; Ki from Dixon plot assuming competitive inhibition against ASA. As to conditions: pH 8.6, r.t., 0.3 mM ASA, 1.5 mM NADP, 20 mM phosphate.
Assay [3] deals with Streptococcus pneumoniae aspartate semialdehyde dehydrogenase (spASADH) (Streptococcus pneumoniae, UniProt Q8DQ00). The experiment in a line: biochemical. As to conditions: for inhibition / binding affinity for spASADH (in words): relative to parent or neighbouring derivative.

For “N-(1-naphthyl)-N-carboxymethyl-3,4-dicarboxybenzylamine [Compound 14]”, the Ki in assay [1] (FIG. 4, Table 1) is 396 ± 42 µM; in assay [2] (FIG. 4, Table 1), 749 ± 54 µM.

Consider `O=C(O)CN(CCN1CCOCC1)Cc1ccc(C(=O)O)c(C(=O)O)c1` [Compound 16, N-(ethylmorpholino)-N-carboxymethyl-3,4-dicarboxybenzylamine], for which the “inhibition / binding affinity for spASADH (in words)” value (“inhibition / binding affinity” below) in assay [3] was “only a slight improvement”.

Regarding `CC(=O)N(CC(=O)O)Cc1ccc(C(=O)O)c(C(=O)O)c1` [Compound 37, N-acetal-N-carboxymethyl-3,4-dicarboxybenzylamine], the Ki came out at 276 ± 16 µM in assay [1] (FIG. 4, Table 1) and 655 ± 51 µM in assay [2] (FIG. 4, Table 1).

With `NC(=O)c1ccc(CN(CC(=O)O)Cc2ccc(C(=O)O)c(C(=O)O)c2)cc1` [Compound 32, N-(4-carboxamidebenzyl)-N-carboxymethyl-3,4-dicarboxybenzylamine], the Ki was 229 ± 32 µM in assay [1] (FIG. 5, Table 2) and 649 ± 25 µM in assay [2] (FIG. 5, Table 2). Moreover, the loss of affinity in assay [3] (carboxamide vs p-carboxyl derivative (31)) worked out at 3 fold.

In assay [2] (FIG. 5, Table 2), `O=C(O)CN(Cc1ccc(C=Cc2ccccc2)cc1)Cc1ccc(C(=O)O)c(C(=O)O)c1` [Compound 38, N-((4-(2-benzyl)vinyl)benzyl)-N-carboxymethyl-3,4-dicarboxybenzylamine] had a Ki of 1100 ± 200 µM.

Consider `O=C(O)CN(Cc1ccc(C(=O)O)c(C(=O)O)c1)c1ccc2ccccc2c1` [Compound 15, N-(2-naphthyl)-N-carboxymethyl-3,4-dicarboxybenzylamine], for which the Ki turned out to be 329 ± 22 µM in assay [1] (FIG. 4, Table 1) and 724 ± 47 µM in assay [2] (FIG. 4, Table 1). Further, the “inhibition / binding affinity” value in assay [3] is “slightly worse inhibition”.

As for “N-acetonitrile, N-carboxymethyl-3,4-dicarboxybenzylamine [Compound 12]”, the Ki was found to be 220 ± 14 µM in assay [1] (FIG. 4, Table 1) and 498 ± 27 µM in assay [2] (FIG. 4, Table 1).

Take `O=C(O)CN(Cc1ccc(C(=O)O)c(C(=O)O)c1)c1ccc(-c2ccccc2)cc1` [Compound 17, N-(4-biphenyl)-N-carboxymethyl-3,4-dicarboxybenzylamine]: the “improved inhibition of spASADH relative to the parent benzyl derivative” value in assay [3] (relative to parent benzyl derivative) is on record as 25 fold. The “inhibition / binding affinity” value in assay [3] was “improved binding affinity”. The compound also yielded an inhibition constant (Ki) in assay [2] (FIG. 4, Table 1) of 634 ± 29 µM.

Consider `O=C(O)CN(Cc1ccc(C(F)(F)F)cc1)Cc1ccc(C(=O)O)c(C(=O)O)c1` [Compound 26, N-(4-trifluoromethylbenzyl)-N-carboxymethyl-3,4-dicarboxybenzylamine], for which the “inhibition / binding affinity” value in assay [3] was “two-fold additional improvement in binding affinity”. The affinity in assay [2] (FIG. 5, Table 2) corresponds to a Ki of 628 ± 48 µM.

As to `CC(C)(C)c1ccc(CN(CC(=O)O)Cc2ccc(C(=O)O)c(C(=O)O)c2)cc1` [Compound 33, N-(4-t-butylbenzyl)-N-carboxymethyl-3,4-dicarboxybenzylamine], in assay [3] (Gram-positive spASADH over Gram-negative vcASADH), the “selectivity for spASADH relative to vcASADH” value was “over 40 fold”. The Ki in assay [3] (competitive vs ASA, 0.15 mM ASA, pH 8.6, read-out: Ki for spASADH) was 16 µM; in assay [2] (FIG. 5, Table 2) it was 648 ± 32 µM. For the same compound, the “inhibition / binding affinity” value in assay [3] is “additional two-fold improvement”.

On to `O=C(O)CN(Cc1ccc(C(F)(C(F)(F)F)C(F)(F)F)cc1)Cc1ccc(C(=O)O)c(C(=O)O)c1` [Compound 34, N-(4-(2-perfluoropropyl))-N-carboxymethyl-3,4-dicarboxybenzylamine], for which the Ki stood at 9 µM in assay [3] and 639 ± 37 µM in assay [2] (FIG. 5, Table 2). In addition, the “inhibition / binding affinity” value in assay [3] is on record as “low micromolar K value”.

As for `O=C(O)CN(Cc1ccc(OC(F)F)cc1)Cc1ccc(C(=O)O)c(C(=O)O)c1` [Compound 30, N-(4-difluoromethoxybenzyl)-N-carboxymethyl-3,4-dicarboxybenzylamine], the inhibition constant Ki in assay [1] (FIG. 5, Table 2) was 54 ± 5 µM; in assay [2] (FIG. 5, Table 2), 698 ± 44 µM. The “inhibition / binding affinity” value in assay [3] is “reversed this improvement”.

As for `O=C(O)CN(Cc1ccccc1)Cc1ccc(C(=O)O)c(C(=O)O)c1` [Compound 13, N-benzyl, N-carboxymethyl-3,4-dicarboxybenzylamine], the Ki in assay [1] (FIG. 4, Table 1) came to 297 ± 14 µM; in assay [2] (FIG. 4, Table 1), 696 ± 33 µM.

The compound `O=C(O)CCN(Cc1ccc(Br)cc1)Cc1ccc(C(=O)O)c(C(=O)O)c1` [Compound 35, N-(4-bromobenzyl)-N-carboxyethyl-3,4-dicarboxybenzylamine] had a Ki in assay [1] (FIG. 5, Table 2) of 3600 ± 230 µM. Moreover, the “inhibition / binding affinity” value in assay [3] is recorded as “substantial affinity loss”.

Consider `Cc1ccccc1CN(CC(=O)O)Cc1ccc(C(=O)O)c(C(=O)O)c1` [Compound 21, N-(2-methylbenzyl)-N-carboxymethyl-3,4-dicarboxybenzylamine], for which the Ki in assay [1] (FIG. 5, Table 2) worked out at 524 ± 27 µM; in assay [2] (FIG. 5, Table 2) it was 721 ± 46 µM. In assay [3], the “inhibition / binding affinity” value is given as “did not yield any improvement in affinity”.

Consider `C=CCN(CC(=O)O)Cc1ccc(C(=O)O)c(C(=O)O)c1` [Compound 11, N-allyl, N-carboxymethyl-3,4-dicarboxybenzylamine], for which the Ki in assay [1] (FIG. 4, Table 1) amounted to 303 ± 22 µM; in assay [2] (FIG. 4, Table 1), 663 ± 36 µM.

Regarding `CN(CC(=O)O)Cc1ccc(C(=O)O)c(C(=O)O)c1` [Compound 10, N-methyl, N-carboxymethyl-3,4-dicarboxybenzylamine], the Ki is 296 ± 36 µM in assay [1] (FIG. 4, Table 1) and 675 ± 54 µM in assay [2] (FIG. 4, Table 1).

For `O=C(O)CN(Cc1ccc(C(=O)O)cc1)Cc1ccc(C(=O)O)c(C(=O)O)c1` [Compound 31, N-(4-carboxybenzyl)-N-carboxymethyl-3,4-dicarboxybenzylamine], the Ki worked out at 72 ± 7 µM in assay [1] (FIG. 5, Table 2) and 635 ± 55 µM in assay [2] (FIG. 5, Table 2). Also, in assay [3], the “inhibition / binding affinity” value is “comparable affinity to that observed for the p-methylbenzyl derivative (23)”.

Turning to `Cc1cccc(CN(CC(=O)O)Cc2ccc(C(=O)O)c(C(=O)O)c2)c1` [Compound 22, N-(3-methylbenzyl)-N-carboxymethyl-3,4-dicarboxybenzylamine], the inhibition constant Ki in assay [1] (FIG. 5, Table 2) was found to be 430 ± 22 µM; in assay [2] (FIG. 5, Table 2), 690 ± 41 µM. Moreover, the “inhibition / binding affinity” value in assay [3] was “did not yield any improvement in affinity”.

Turning to `O=C(O)CN(Cc1ccc(C(=O)O)c(C(=O)O)c1)Cc1cccc2ccccc12` [Compound 14], the “inhibition / binding affinity” value in assay [3] is “slightly worse inhibition”.

For `O=C(O)CN(Cc1ccc(C(=O)O)c(C(=O)O)c1)Cc1ccccc1Br` [Compound 18, N-(2-bromobenzyl)-N-carboxymethyl-3,4-dicarboxybenzylamine], the inhibition constant Ki stood at 529 ± 38 µM in assay [1] (FIG. 5, Table 2) and 737 ± 49 µM in assay [2] (FIG. 5, Table 2). Besides, the “inhibition / binding affinity” value in assay [3] is reported as “did not yield any improvement in affinity”.

The compound `O=C(O)CN(Cc1ccc(C(F)(F)F)cc1)Cc1ccc(C(=O)O)c(C(=O)O)c1` [Compound 36, N-(4-trifluoromethylbenzyl)-N-carboxymethyl-3,4-dicarboxybenzylamine] had a Ki in assay [1] (FIG. 5, Table 2) of 3800 ± 220 µM. The “inhibition / binding affinity” value in assay [3] is on record as “substantial affinity loss”.

With `O=C(O)CN(Cc1ccc(OC(F)(F)F)cc1)Cc1ccc(C(=O)O)c(C(=O)O)c1` [Compound 29, N-(4-trifluoromethoxybenzyl)-N-carboxymethyl-3,4-dicarboxybenzylamine], the Ki in assay [1] (FIG. 5, Table 2) came out at 36 ± 6 µM; in assay [2] (FIG. 5, Table 2) it was 663 ± 39 µM. In addition, in assay [3], the “inhibition / binding affinity” value was “two-fold additional improvement in binding affinity”.

In the case of `O=C(O)CN(Cc1cccc(Br)c1)Cc1ccc(C(=O)O)c(C(=O)O)c1` [Compound 19, N-(3-bromobenzyl)-N-carboxymethyl-3,4-dicarboxybenzylamine], the Ki in assay [1] (FIG. 5, Table 2) was determined as 442 ± 29 µM; in assay [2] (FIG. 5, Table 2), 665 ± 37 µM. Further, the “inhibition / binding affinity” value in assay [3] is reported as “did not yield any improvement in affinity”.

In general, Ki refers to the dissociation constant of the complex between target and ligand, obtained from inhibition or displacement.
